The values below are quoted from earlier work in patent publication US7662360B2, “Conjugates of N-hydroxypropymethacrylamide-methacrylate copolymer with nuclide activation agent and/or anti-cancer compounds” (Psimei Pharmaceuticals PLC, priority 2002, dated 2010).

The conditions of this data set: dose BPA 900-1200 mg/kg (30 mg/ml), CuTCPH 200 mg/kg (6 mg/ml), BSH dose not given.

Regarding `N[C@@H](Cc1ccc(B(O)O)cc1)C(=O)O` [BPA, 4-dihydroxyborylphenylalanine], the Absolute tumour concentration was 16.5 µg/g.

As to “sodium mnercaptoundecahydrododecaborate [BSH]”, the Absolute tumour concentration was 6.9 µg/g.
